# Data reported in PubChem BioAssay AID1996.
# Details: buffer; pH 7.4; 200.0 µM
row,Structure (SMILES),solubility kinetic [µg/mL]
1,O=S(=O)(Nc1cc(Cl)cc(Cl)c1)N1CCOCC1,> 46.7
2,Cc1cc(SCC(=O)c2cccc([N+](=O)[O-])c2)nc(=O)[nH]1,24.3
3,CC(=O)c1ccccc1NC(=O)c1ccc(OCc2c(C)noc2C)cc1,2.6
4,COc1ccccc1/C=C/C(=O)Nc1cccnc1,> 38.1
5,O=c1[nH]c2ccc(S(=O)(=O)NCc3ccccc3)cc2[nH]1,22.5
6,CCc1ccc(/C=C(\C#N)C(=O)NC2CCS(=O)(=O)C2)cc1 (stereo not given),7.8
7,CC(C)CN(C(=O)CSc1nc2ccccc2c(=O)[nH]1)c1c(N)n(CC(C)C)c(=O)[nH]c1=O,10.5
8,CC1(C)CC(=O)C=C(Nc2ccc([N+](=O)[O-])cc2)C1,22.8
9,Cc1nc2ccccc2n1CC(O)c1ccccc1 (stereo not given),33.9
10,FC(F)(F)c1nc(=S)c2ccccc2[nH]1,34.5
11,O=C(CNC(=O)c1cccs1)c1ccc(Cl)cc1,26.4
12,COc1ccc2nccnc2c1[N+](=O)[O-],> 30.8
13,CCCNc1ncnc2onc(C)c12,22.5
14,CC[C@H](C)[C@H](NC(N)=O)C(=O)Nc1ccc(NC(C)=O)cc1,> 46
15,Cc1cccc(NC(=O)CCCC(=O)OC(C)C(=O)c2ccccc2)c1 (stereo not given),46.1
16,O=C(COC(=O)c1ccc2ccccc2n1)c1ccccc1,42.3
17,COc1ccc(-c2cc3nc(CCl)[nH]c(=O)c3s2)cc1,2.8
18,CCCCCCn1cc(C(=O)OCC)c(=O)c2cc(F)c(F)cc21,43.6
19,CC(C)(C)S(=O)(=O)/C(C#N)=C/Nc1ccccn1,> 39.8
20,C=CCOc1cccc(/C=C\c2nc(O)c([N+](=O)[O-])c(=O)[nH]2)c1,> 47.3

row,Structure (SMILES),solubility kinetic [µg/mL]
1,Cc1ccccc1OCc1nc(-c2cccnc2)no1,30.2
2,O=C(CNC(=O)c1ccccc1Cl)c1ccccc1,37.6
3,CC(=O)Nc1ccc(N=Cc2c(O)ccc3ccccc23)cc1,7.6
4,CCOC(=O)C1=C(COC(=O)/C=C/c2ccco2)NC(=O)NC1C (stereo not given),23.1
5,Cc1noc(C)c1C(=O)N1CCC(C(=O)c2ccccc2)CC1,41.8
6,CCCCc1nc2cc(C(=O)N3CCC(O)CC3)ccc2o1,> 45.4
7,O=C(NC1CCCC1)C1CCN(C(=O)c2cccc(Cl)c2)CC1,> 50.2
8,O=C(CN1C(=O)NC2(CCCCCC2)C1=O)NCc1ccccc1Cl,> 54.6
9,CCn1c(CNC(=O)C2CCCCC2)cc2cc(C)ccc21,< 0.3
10,Cc1ccc(C(=O)/C=C/c2cc(C#N)n(C)c2C)cc1,1.2
11,Cc1ccc(OC(C)C(=O)N2CC(=O)Nc3ccccc32)cc1 (stereo not given),> 46.6
12,COc1ccccc1CNC(=O)COC(=O)c1ccc(Cl)nc1,> 50.2
13,O=C(c1ccc(Cl)cc1Cl)N1CCSCC1,> 41.4
14,N#C/C(=C/c1ccc(F)cc1)S(=O)(=O)c1ccccc1,37.5
15,Cc1cccc(C)c1NC(=O)CNC(=O)c1c(C)nn(C)c1Cl,> 50.2
16,N#CC1=C(N)N(c2ccc(Cl)c(Cl)c2)C(=O)C1,> 40.2
17,O=C1CN(S(=O)(=O)c2cccc(C(=O)O)c2)c2ccccc2N1,> 49.8
18,CN(CCO)C(=O)c1ccc(-c2nn(C)c(=O)c3ccccc23)cc1,> 50.6
19,Fc1cccc(CN2CCN(c3ccc(Cl)cc3)CC2)c1,4.1
20,CCN(C(=O)c1ccc(=O)n(C)n1)c1c(N)n(Cc2ccccc2)c(=O)[nH]c1=O,> 59.5

row,Structure (SMILES),solubility kinetic [µg/mL]
1,O=C(COC(=O)c1cc[n+]([O-])cc1)NCc1ccccc1Cl,> 48.1
2,CN(CCN1CCOCC1)Cc1nc(-c2ccc(Cl)cc2)no1,38.1
3,COC(=O)[C@H](CC(C)C)NC(=O)Nc1ccccc1F,> 42.3
4,COc1ccc(Nc2cc(Nc3cccc(OC)c3)ncn2)cc1,0.5
5,O=c1[nH]c(NCCO)c(N=Cc2ccccc2)c(=O)[nH]1,> 41.1
6,Cc1sc2nc(SCC(=O)O)[nH]c(=O)c2c1C,> 40.5
7,O=C1CNC(=S)N1CCCn1ccnc1,31.5
8,O=C(CCOc1ccc(F)cc1)Nc1nccs1,5.6
9,CC(C)c1ccccc1NC(=S)N(C)C,> 33.4
10,Cc1cc(OCC(=O)Nc2ccncc2)cc(C)c1Cl,2.9
11,CCc1cccc(NS(=O)(=O)c2csc(C(N)=O)c2)c1,> 46.6
12,O=P([O-])(CN1CCCCCC1)C1Cc2ccccc2C1,43.7
13,O=C(CCc1ccccc1)Nc1ccc(S(=O)(=O)NC2=NCCCCC2)cc1,56.6
14,CCNC(=S)N1CCC(NC(=O)c2ccco2)CC1,> 42.2
15,CCCN(CCC)C(=S)NC1CC2C=CC1C2 (stereo not given),> 37.9
16,Cc1ccc(C)c(S(=O)(=O)NC2CCSC2=O)c1 (stereo not given),> 42.8
17,CC1CN(CC(=O)NCc2ccc(F)cc2)CC(C)O1 (stereo not given),> 42.1
18,CC(C)NC(=S)N1CCC(Cc2ccccc2)CC1,24.4
19,COC(=O)CSc1[nH]c2ccc(F)cc2c1[N+](=O)[O-],41.8
20,O=C(Oc1ccc(F)cc1)N1CCOCC1,> 33.8
